Measured values taken from patent US20030139424A1, “Use” (priority 2001, published 2003).

System: ob/ob mice
Assay: Effect on food intake (and total motor activity) by single dose subcutaneous administration in ob/ob mice, operant test cage system (Eater meter)
Assay type: in vivo, mouse
Details: male ob/ob mice
Text: Effect on Food Intake of N,N-Dimethyl 2-[1-(benzenesulphonyl)-5-methoxy-1H-indol-3-yl]ethylamine by single dose subcutaneous administration in ob/ob mice.
Obese (ob/ob) mouse is selected as the primary animal model for screening as this mutant mouse consumes high amounts of food resulting in a high signal to noise ratio. To further substantiate and compare efficacy data, the effect of the compounds on food consumption is also studied in wild type (C57BL/6J) mice. The amount of food consumed during 15 hours of infusion of compounds is recorded.
Male mice (obese C57BL/6JBom-Lep^ob and lean wild-type C57B1/6JBom; Bomholtsgaard, Denmark) 8-9 weeks with an average body weight of 50 g (obese) and 25 g (lean) are used in all the studies. The animals are housed singly in cages at 23±1° C., 40-60% humidity and have free access to water and standard laboratory chow. The 12/12-h light/dark cycle is set to lights off at 5 p.m. The animals are conditioned for at least one week before start of study.
The test compound, N,N-Dimethyl 2-[1-(benzenesulphonyl)-5-methoxy-1H-indol-3-yl]ethylamine, was dissolved in 25% Polyetylenglykol 400 (PEG 400) plus 0.1% Tween 80. +sodium actetate till pH 5. Doses of […] were used. […]
The animals were divided into four groups containing 8 animals each and treated with vehicle plus three dosages of the test compound. Food consumption, total motor activity and water consumption were measured continuously for 22 h following start of recording in a computer-assisted operant test cage system (Eater meter). […] On the fourth day the animals were treated with test compound just before dark onset (5 pm) and data recorded cumulatively for 3 h, 6 h, 12 h and 21 h. Water consumption during 22 h was also measured by weighing the days before and after treatment.
Animals were randomized according to body weight and treatment assigned in a cage- and room-wise order. […] Spillage at other time points were calculated proportionally to that of the 22 h spillage. The values are expressed as mean±SEM both as the change in gram from basal level and as percent of basal level. […]

Structure (SMILES): COc1ccc2c(c1)c(CCN(C)C)cn2S(=O)(=O)c1ccccc1 [N,N-Dimethyl 2-[1-(benzenesulphonyl)-5-methoxy-1H-indol-3-yl]ethylamine]
- decrease of food intake (single sc dose 10, 30, 50 mg salt/kg, at 6 h and 12 h following administration, significant, FIG. 1): 15-20%
- dose dependence of food intake effect (single sc dose 10, 30, 50 mg salt/kg, all doses overlapped): not dose-dependent
- approximate minimum effective dose for food intake (single sc dose, borderline statistical significance of 15-20% inhibition): ~10 mg/kg
